For 82 compounds, melting point results are on record in patent publication US7067520B2, “Preventive or therapeutic medicines for diabetes containing fused-heterocyclic compounds or their salts” (Ishihara Sangyo Kaisha, Ltd., priority 2000, dated 2006).

Where only a bound is given, the exact number is not on record here.

Take `CSc1nc2cc(C)nn2c(Nc2ccccc2)c1C#N` [compound 189]: the melting point (commonly the temperature of the solid-liquid transition) lay within 185 to 187 °C. With `CSc1nc2ccnn2c(Nc2ccc(C(=O)O)cc2)c1C#N` [compound 176] the figure was more than 250 °C.

`CSc1nc2c(Br)cnn2c(NCc2ccccc2)c1C#N` [compound 55]: the melting point worked out at 184 °C. With `CSc1nc2ccnn2c(NCc2ccncc2)c1C(=O)OCc1ccccc1` [compound 147] the figure was 122 to 123 °C. With `CSc1nc2ccnn2c(OCCOc2ccccc2)c1C#N` [compound 182] the figure was 125 °C; with `CSc1nc2ccnn2c(NOCC2OCCO2)c1C#N` [compound 208], 152 to 153 °C. With `CSc1nc2ccnn2c(NCc2ccccc2Cl)c1C#N` [compound 33] the figure was 160 °C; with `CSc1nc2ccnn2c(NC(C)=O)c1C#N` [Compound No. 7], more than 280 °C; with `CSc1nc2nccn2c(NCc2ccccc2)c1C#N` [compound 42], 179 °C. On to `CSc1nc2ccnn2c(N(Cc2ccccn2)Cc2ccccn2)c1C#N` [compound 6], for which the melting point turned out to be 139 °C. With `COc1nc2ccnn2c(NCc2ccncc2)c1C#N` [compound 153] the figure was 193 to 195 °C; with `CSc1nc2ccnn2c(SCc2ccccc2)c1C#N` [compound 183], 138 °C. With `COC(=O)c1ccc(CNc2c(C#N)c(SC)nc3ccnn23)cc1` [compound 23] the figure was 171 °C. The compound `CSc1nc2ccnn2c(NCCC2OCCCO2)c1C#N` [compound 216] came in with a melting point of 103 to 104 °C. In turn, `CSc1nc2ccnn2c(NC2CCCC2)c1[N+](=O)[O-]` [compound 127] had a melting point of 132 to 134 °C. With `CSc1nc2ccnn2c(Nc2ccc(CC#N)cc2)c1C#N` [compound 198] the figure was 268 to 269 °C. Under `CSc1nc2nc(SC)c(C#N)c(N)n2n1` [compound 35] stands more than 250 °C.

The compound `CSc1nc2ccnn2c(NOCC2CCCO2)c1C#N` (stereo not shown) [compound 213] returned a melting point of 143 to 144 °C. With `CSc1nc2ccnn2c(NCc2ccncc2)c1C(=O)O` [compound 129] the figure was 155 to 157 °C; with `CSc1nc2nc(SC)c(C#N)c(NCc3ccccc3)n2n1` [compound 36], 154 °C; with `COC(=O)c1c(SC)nc2ccnn2c1Cl` [compound 119], 105 to 113 °C. With `CSc1nc2ccnn2c(O)c1C#N` [compound 49, 7-hydroxy-5-methylthiopyrazolo[1,5-a]pyrimidine-6-carbonitrile] the figure was more than 250 °C; with `CSc1nc2ccnn2c(NCc2cccs2)c1C#N` [compound 180], 142 °C; with `CSc1nc2ccnn2c(OCc2ccccc2)c1C#N` [Compound No. 51, 7-benzyloxy-5-methylthiopyrazolo[1,5-a]pyrimidine-6-carbonitrile], 194 °C. Under `CSc1nc2ccnn2c(Cl)c1C#N` [compound 62, 7-chloro-5-methylthiopyrazolo[1,5-a]pyrimidine-6-carbonitrile] stands 201 to 202 °C; under `CSc1nc2ccnn2c(N)c1S(C)(=O)=O` [compound 58], 230 to 233 °C.

In the case of `CSc1nc2ccnn2c(Nc2ccc(OC(F)(F)F)cc2)c1C#N` [compound 167], the melting point is 243 to 244 °C. Under `COC(=O)c1c(SC)nc2ccnn2c1O` [compound 155] stands 192 to 194 °C. Under `CSc1nc2cc(C)nn2c(NCc2ccccc2)c1C#N` [compound 187] stands 204 to 205 °C; under `CSc1nc2ccnn2c(Nc2ccncc2)c1C#N` [compound 81], 260 to 263 °C. The compound `CCOCSc1nc2ccnn2c(NCc2ccccc2)c1C#N` [compound 117] showed a melting point of 130.5 to 133.5 °C. Under `CSc1nc2ccnn2c(NOCCC2OCCCO2)c1C#N` [compound 217] stands 193 to 195 °C. Under `CSc1nc2ccnn2c(NCc2ncc(C(F)(F)F)cc2Cl)c1C#N` [compound 207] stands 185 to 187 °C. With `C#CCSc1nc2ccnn2c(NCc2ccccc2)c1C#N` [compound 95] the figure was 142.2 to 144.2 °C; with `C#CCSc1nc2ccnn2c(NCc2ccncc2)c1C#N` [compound 96], 208.5 to 208.7 °C.

Regarding `CSc1nc2ccnn2c(NCc2cccc(Cl)c2)c1C#N` [compound 32], the melting point turned out to be 155 °C. With `CSc1nc2ccnn2c(Nc2ccc(O)cc2)c1C#N` [compound 170] the figure was 250 to 256 °C; with `N#Cc1c(-c2ccccc2)nc2ccnn2c1NCc1ccncc1` [compound 89], 199 to 201 °C; with `CCSc1nc2ccnn2c(NCc2ccccc2)c1C#N` [compound 67], 112 to 113.4 °C. For the compound `CSc1nc2ccnn2c(NCOCc2ccccc2)c1C#N` [compound 10], the melting point is 63 to 64 °C.

`N#Cc1c(Cc2ccccc2)nc2ccnn2c1N` [compound 87] came in with a melting point of 242 °C. With `CSc1nc2cc(-c3ccccc3)nn2c(N)c1C#N` [compound 44] the figure was 233 °C; with `CSc1nc2ccnn2c(Nc2cccc(Cl)c2)c1C#N` [compound 162], 161 to 162 °C. With `CSc1nc2ccnn2c(NCc2cccc3ccccc23)c1C#N` [compound 30], the melting point was found to be 195 °C. With `CSc1nc2nc3ccccc3n2c(N)c1C#N` [compound 45] the figure was more than 250 °C; with `CSc1nc2ccnn2c(Nc2ccc(C(C)=O)cc2)c1C#N` [compound 199], 260 to 261 °C.

The compound `N#Cc1c(-c2ccccc2)nc2ccnn2c1N` [compound 85] displayed a melting point of more than 250 °C. Under `CSc1nc2cc(C)nn2c(NCc2ccncc2)c1C#N` [compound 188] stands 190 to 191 °C; under `CSc1nc2ccnn2c(NCC(=O)c2ccccc2)c1C#N` [compound 18], 212 to 213 °C; under `CSc1nc2ccnn2c(N=Cc2ccccc2)c1C#N` [compound 34], 188 °C. In turn, `CSc1nc2ccnn2c(NOCC2CCCCO2)c1C#N` (stereo not shown) [compound 209] came in with a melting point of 161 °C. With `CSc1nc2ccnn2c(Nc2cccc(C#N)c2)c1C(=O)O` [compound 134] the figure was 162.5 to 164.5 °C; with `COC(=O)c1c(SC)nc2ccnn2c1NC1CCCC1` [compound 123], 84.5 to 85.5 °C; with `CSc1nc2ccnn2c(Nc2ccc(S(C)(=O)=O)cc2)c1C#N` [compound 201], 241 to 244 °C. Under `CSc1nc2ccnn2c(Nc2ccc(N(C)C)cc2)c1C#N` [compound 202] stands 250 to 252 °C; under `CSc1nc2ccnn2c(Nc2cccc(C(=O)O)c2)c1C#N` [compound 195], 168 to 171 °C; under `N#Cc1c(C2CCCCC2)nc2ccnn2c1N` [compound 91], more than 250 °C. Under `CCC(CC)Sc1nc2ccnn2c(NCc2ccccc2)c1C#N` [compound 114] stands 107 to 108.3 °C; under `COC(=O)c1ccc(Nc2c(C#N)c(SC)nc3ccnn23)cc1` [compound 171], 205 to 206 °C.

In the case of `CSc1nc2ccnn2c(Nc2ccccc2C#N)c1C#N` [compound 214], the melting point is 206 to 208 °C.

As to `CCC(CC)Sc1nc2ccnn2c(NCc2ccncc2)c1C#N` [compound 115], the melting point is 129 to 133.4 °C. Under `CCC(CC)Sc1nc2ccnn2c(N)c1C#N` [compound 113] stands 242 to 243.8 °C; under `COc1c(C#N)c(SC)nc2ccnn12` [compound 229], 223 to 224 °C. With `CSc1nc2ccnn2c(N2CCC(C)CC2)c1C#N` [compound 160] the figure was 118 to 120 °C.

Compound `CCSc1nc2ccnn2c(N)c1C#N` [compound 66] showed a melting point of more than 240 °C. Under `N#Cc1c(SCc2ccccc2)nc2ccnn2c1N` [compound 69] stands 245.6 to 245.9 °C; under `N#Cc1c(-c2ccccc2)nc2ccnn2c1NCc1ccccc1` [compound 86], 120 to 122 °C; under `C#CCSc1nc2ccnn2c(N)c1C#N` [compound 94], 206 °C (dec.). In turn, `CSc1nc2ccnn2c(Nc2ccc(C(N)=O)cc2)c1C#N` [compound 197] showed a melting point of more than 280 °C. As to `CCN(Cc1ccncc1)c1c(C#N)c(SC)nc2ccnn12` [compound 228], the melting point was 102 to 103 °C. Under `CSc1nc2ccnn2c(NCc2ccccc2)c1C(=O)O` [compound 128] stands 162.7 to 164 °C; under `CSc1nc2ccnn2c(Cl)c1C(=O)OCc1ccccc1` [compound 146], 52 to 54 °C. Under `CSc1nc2ccnn2c(NCC2CCCO2)c1C#N` (stereo not shown) [compound 212] stands 116 to 120 °C; under `CSc1nc2ccnn2c(NCc2ccncc2)c1S(C)(=O)=O` [compound 63], 195 to 196 °C; under `N#Cc1c(SC2CCCC2)nc2ccnn2c1NCc1ccccc1` [compound 104], 115.8 to 116.6 °C. Compound `CSc1nc2ccnn2c(N)c1C#N` [compound 41] returned a melting point of more than 250 °C. The compound `COCSc1nc2ccnn2c(NCc2ccccc2)c1C#N` [compound 107] registered a melting point of 137.4 to 141.4 °C. Under `N#Cc1c(Cc2ccccc2)nc2ccnn2c1NCc1ccncc1` [compound 90] stands 195 to 198 °C; under `CSc1nc2ccnn2c(NOc2ncc(C(F)(F)F)cc2Cl)c1C#N` [compound 204], 182 to 183 °C.

As to `CSc1nc2ccnn2c(Nc2cccc(S(N)(=O)=O)c2)c1C#N` [compound 152], the melting point is more than 280 °C. With `C=CCSc1nc2ccnn2c(NCc2ccncc2)c1C#N` [compound 76] the figure was 178.8 to 179.8 °C; with `CSc1nc2ccnn2c(NCc2ccc([N+](=O)[O-])cc2)c1C#N` [compound 16], 215 °C.
